Laboratory results taken from publication PMC7181660, “A novel specific PERK activator reduces toxicity and extends survival in Huntington's disease models” (Scientific Reports, 2020).

Experiments:
Test in all cases: biochemical
Format in all cases: biochemical
panel of 391 kinases [1] = biological target: panel of 391 kinases (Homo sapiens, UniProt P04629); conditions: TRKA, MK-28 1 µM, ATP 1 µM
panel of 391 kinases [2] = biological target: panel of 391 kinases (Homo sapiens, UniProt P06239); conditions: LCK, MK-28 1 µM, ATP 1 µM
panel of 391 kinases [3] = biological target: panel of 391 kinases (Homo sapiens, UniProt P07333); conditions: FMS, MK-28 1 µM, ATP 1 µM
panel of 391 kinases [4] = biological target: panel of 391 kinases (Homo sapiens, UniProt P29317); conditions: EPHA2, MK-28 1 µM, ATP 1 µM
panel of 391 kinases [5] = biological target: panel of 391 kinases (Homo sapiens, UniProt P30530); conditions: AXL, MK-28 1 µM, ATP 1 µM
panel of 391 kinases [6] = biological target: panel of 391 kinases (Homo sapiens, UniProt P36507); conditions: MEK2, MK-28 1 µM, ATP 1 µM
panel of 391 kinases [7] = biological target: panel of 391 kinases (Homo sapiens, UniProt P49674); conditions: CK1epsilon, MK-28 1 µM, ATP 1 µM
panel of 391 kinases [8] = biological target: panel of 391 kinases (Homo sapiens, UniProt P53671); conditions: LIMK2, MK-28 1 µM, ATP 1 µM
panel of 391 kinases [9] = biological target: panel of 391 kinases (Homo sapiens, UniProt P53778); conditions: P38g, MK-28 1 µM, ATP 1 µM
panel of 391 kinases [10] = biological target: panel of 391 kinases (Homo sapiens, UniProt Q02750); conditions: MEK1, MK-28 1 µM, ATP 1 µM
panel of 391 kinases [11] = biological target: panel of 391 kinases (Homo sapiens, UniProt Q06418); conditions: TYRO3/SKY, MK-28 1 µM, ATP 1 µM
panel of 391 kinases [12] = biological target: panel of 391 kinases (Homo sapiens, UniProt Q14164); conditions: IKKe/IKBKE, MK-28 1 µM, ATP 1 µM
panel of 391 kinases [13] = biological target: panel of 391 kinases (Homo sapiens, UniProt Q15208); conditions: STK38/NDR1, MK-28 1 µM, ATP 1 µM
panel of 391 kinases [14] = biological target: panel of 391 kinases (Homo sapiens, UniProt Q15349); conditions: RSK3, MK-28 1 µM, ATP 1 µM
panel of 391 kinases [15] = biological target: panel of 391 kinases (Homo sapiens, UniProt Q15835); conditions: GRK1, MK-28 1 µM, ATP 1 µM
panel of 391 kinases [16] = biological target: panel of 391 kinases (Homo sapiens, UniProt Q16644); conditions: MAPKAPK3, MK-28 1 µM, ATP 1 µM
panel of 391 kinases [17] = biological target: panel of 391 kinases (Homo sapiens, UniProt Q16816); conditions: PHKg1, MK-28 1 µM, ATP 1 µM
panel of 391 kinases [18] = biological target: panel of 391 kinases (Homo sapiens, UniProt Q86Y07); conditions: VRK2, MK-28 1 µM, ATP 1 µM
panel of 391 kinases [19] = biological target: panel of 391 kinases (Homo sapiens, UniProt Q8IVT5); conditions: KSR1, MK-28 1 µM, ATP 1 µM
panel of 391 kinases [20] = biological target: panel of 391 kinases (Homo sapiens, UniProt Q8IYT8); conditions: ULK2, MK-28 1 µM, ATP 1 µM
panel of 391 kinases [21] = biological target: panel of 391 kinases (Homo sapiens, UniProt Q8TD08); conditions: ERK7/MAPK15, MK-28 1 µM, ATP 1 µM
panel of 391 kinases [22] = biological target: panel of 391 kinases (Homo sapiens, UniProt Q8TDX7); conditions: NEK7, MK-28 1 µM, ATP 1 µM
panel of 391 kinases [23] = biological target: panel of 391 kinases (Homo sapiens, UniProt Q96QT4); conditions: kinase TRPM7/CHAK1, compound at 1 µM, single dose in duplicates, 1 µM ATP
panel of 391 kinases [24] = biological target: panel of 391 kinases (Homo sapiens, UniProt Q99986); conditions: VRK1, MK-28 1 µM, ATP 1 µM
panel of 391 kinases [25] = biological target: panel of 391 kinases (Homo sapiens, UniProt Q9BUB5); conditions: MNK1, MK-28 1 µM, ATP 1 µM
panel of 391 kinases [26] = biological target: panel of 391 kinases (Homo sapiens, UniProt Q9P2K8); conditions: kinase EIF2AK4, compound at 1 µM, single dose in duplicates, 1 µM ATP
panel of 391 kinases [27] = biological target: panel of 391 kinases (Homo sapiens, UniProt Q9Y6M4); conditions: CK1g3, MK-28 1 µM, ATP 1 µM
[28] = read-out: % Enzyme Activity (relative to DMSO controls)

With `CN(/N=C\c1ccc(O)c(O)c1)c1nc(-c2ccccc2)cc(-c2ccccc2)n1` [MK-28] the “% Enzyme Activity (relative to DMSO controls)” value (panel of 391 kinases [1]) was 106.86%, the remaining activity at 1 µM (panel of 391 kinases [1]; [28]) was 108% and the “% Enzyme Activity (relative to DMSO controls)” value (panel of 391 kinases [2]) was 116.76%. For the same compound, the remaining activity at 1 µM (panel of 391 kinases [2]; [28]) was 117%, the “% Enzyme Activity (relative to DMSO controls)” value (panel of 391 kinases [3]) was 101.26% and the remaining activity at 1 µM (panel of 391 kinases [3]; [28]) was 102%. For the same compound, the “% Enzyme Activity (relative to DMSO controls)” value (panel of 391 kinases [4]) was 99.61%, the remaining activity at 1 µM (panel of 391 kinases [4]; [28]) was 100% and the “% Enzyme Activity (relative to DMSO controls)” value (panel of 391 kinases [5]) was 98.72%. For the same compound, the remaining activity at 1 µM (panel of 391 kinases [5]; [28]) was 99.5%, the “% Enzyme Activity (relative to DMSO controls)” value (panel of 391 kinases [6]) was 98.80% and the remaining activity at 1 µM (panel of 391 kinases [6]; [28]) was 99.9%. The “% Enzyme Activity (relative to DMSO controls)” value (panel of 391 kinases [7]) was 82.77%, the remaining activity at 1 µM (panel of 391 kinases [7]; [28]) was 83.4% and the “% Enzyme Activity (relative to DMSO controls)” value (panel of 391 kinases [8]) was 94.92%. For the same compound, the remaining activity at 1 µM (panel of 391 kinases [8]; [28]) was 95.4%, the “% Enzyme Activity (relative to DMSO controls)” value (panel of 391 kinases [9]) was 100.96% and the remaining activity at 1 µM (panel of 391 kinases [9]; [28]) was 107%. The “% Enzyme Activity (relative to DMSO controls)” value (panel of 391 kinases [10]) was 99.18%, the remaining activity at 1 µM (panel of 391 kinases [10]; [28]) was 100% and the “% Enzyme Activity (relative to DMSO controls)” value (panel of 391 kinases [11]) was 99.89%. For the same compound, the remaining activity at 1 µM (panel of 391 kinases [11]; [28]) was 100%, the “% Enzyme Activity (relative to DMSO controls)” value (panel of 391 kinases [12]) was 93.45% and the remaining activity at 1 µM (panel of 391 kinases [12]; [28]) was 96%. The “% Enzyme Activity (relative to DMSO controls)” value (panel of 391 kinases [13]) was 95.54%, the remaining activity at 1 µM (panel of 391 kinases [13]; [28]) was 96.8% and the “% Enzyme Activity (relative to DMSO controls)” value (panel of 391 kinases [14]) was 100.80%. For the same compound, the remaining activity at 1 µM (panel of 391 kinases [14]; [28]) was 103%, the “% Enzyme Activity (relative to DMSO controls)” value (panel of 391 kinases [15]) was 96.61% and the remaining activity at 1 µM (panel of 391 kinases [15]; [28]) was 102%. For the same compound, the “% Enzyme Activity (relative to DMSO controls)” value (panel of 391 kinases [16]) was 71.56%, the remaining activity at 1 µM (panel of 391 kinases [16]; [28]) was 74.1% and the “% Enzyme Activity (relative to DMSO controls)” value (panel of 391 kinases [17]) was 89.19%. For the same compound, the remaining activity at 1 µM (panel of 391 kinases [17]; [28]) was 90.7%, the “% Enzyme Activity (relative to DMSO controls)” value (panel of 391 kinases [18]) was 96.44% and the remaining activity at 1 µM (panel of 391 kinases [18]; [28]) was 97%. The “% Enzyme Activity (relative to DMSO controls)” value (panel of 391 kinases [19]) was 97.81%, the remaining activity at 1 µM (panel of 391 kinases [19]; [28]) was 99.7% and the “% Enzyme Activity (relative to DMSO controls)” value (panel of 391 kinases [20]) was 98.62%. For the same compound, the remaining activity at 1 µM (panel of 391 kinases [20]; [28]) was 102%, the “% Enzyme Activity (relative to DMSO controls)” value (panel of 391 kinases [21]) was 103.38% and the remaining activity at 1 µM (panel of 391 kinases [21]; [28]) was 105%. For the same compound, the “% Enzyme Activity (relative to DMSO controls)” value (panel of 391 kinases [22]) was 97.32%, the remaining activity at 1 µM (panel of 391 kinases [22]; [28]) was 98.3% and the “% Enzyme Activity (relative to DMSO controls)” value (panel of 391 kinases [23]) was 102.70%. The remaining activity at 1 µM (panel of 391 kinases [23]; [28]) was 104%, the “% Enzyme Activity (relative to DMSO controls)” value (panel of 391 kinases [24]) was 104.86% and the remaining activity at 1 µM (panel of 391 kinases [24]; [28]) was 106%. For the same compound, the “% Enzyme Activity (relative to DMSO controls)” value (panel of 391 kinases [25]) was 114.65%, the remaining activity at 1 µM (panel of 391 kinases [25]; [28]) was 116% and the “% Enzyme Activity (relative to DMSO controls)” value (panel of 391 kinases [26]) was 87.73%. The remaining activity at 1 µM (panel of 391 kinases [26]; [28]) was 88.1%, the “% Enzyme Activity (relative to DMSO controls)” value (panel of 391 kinases [27]) was 76.84% and the remaining activity at 1 µM (panel of 391 kinases [27]; [28]) was 80.6%.
